Data published in paper PMC9401600 (Chemmedchem, 2022).

How the values were obtained:
[1] = biological target: T1, G9a (Homo sapiens, UniProt Q96KQ7); assay: G9a Homogeneous Assay Kit (AlphaLISA) G9a inhibition; format: biochemical; settings: for IC50: AlphaLISA, 100 μM SAM and peptide substrate
T1 construct: purchased BPS Bioscience 52051
T1 sequence (Q96KQ7 1-1210): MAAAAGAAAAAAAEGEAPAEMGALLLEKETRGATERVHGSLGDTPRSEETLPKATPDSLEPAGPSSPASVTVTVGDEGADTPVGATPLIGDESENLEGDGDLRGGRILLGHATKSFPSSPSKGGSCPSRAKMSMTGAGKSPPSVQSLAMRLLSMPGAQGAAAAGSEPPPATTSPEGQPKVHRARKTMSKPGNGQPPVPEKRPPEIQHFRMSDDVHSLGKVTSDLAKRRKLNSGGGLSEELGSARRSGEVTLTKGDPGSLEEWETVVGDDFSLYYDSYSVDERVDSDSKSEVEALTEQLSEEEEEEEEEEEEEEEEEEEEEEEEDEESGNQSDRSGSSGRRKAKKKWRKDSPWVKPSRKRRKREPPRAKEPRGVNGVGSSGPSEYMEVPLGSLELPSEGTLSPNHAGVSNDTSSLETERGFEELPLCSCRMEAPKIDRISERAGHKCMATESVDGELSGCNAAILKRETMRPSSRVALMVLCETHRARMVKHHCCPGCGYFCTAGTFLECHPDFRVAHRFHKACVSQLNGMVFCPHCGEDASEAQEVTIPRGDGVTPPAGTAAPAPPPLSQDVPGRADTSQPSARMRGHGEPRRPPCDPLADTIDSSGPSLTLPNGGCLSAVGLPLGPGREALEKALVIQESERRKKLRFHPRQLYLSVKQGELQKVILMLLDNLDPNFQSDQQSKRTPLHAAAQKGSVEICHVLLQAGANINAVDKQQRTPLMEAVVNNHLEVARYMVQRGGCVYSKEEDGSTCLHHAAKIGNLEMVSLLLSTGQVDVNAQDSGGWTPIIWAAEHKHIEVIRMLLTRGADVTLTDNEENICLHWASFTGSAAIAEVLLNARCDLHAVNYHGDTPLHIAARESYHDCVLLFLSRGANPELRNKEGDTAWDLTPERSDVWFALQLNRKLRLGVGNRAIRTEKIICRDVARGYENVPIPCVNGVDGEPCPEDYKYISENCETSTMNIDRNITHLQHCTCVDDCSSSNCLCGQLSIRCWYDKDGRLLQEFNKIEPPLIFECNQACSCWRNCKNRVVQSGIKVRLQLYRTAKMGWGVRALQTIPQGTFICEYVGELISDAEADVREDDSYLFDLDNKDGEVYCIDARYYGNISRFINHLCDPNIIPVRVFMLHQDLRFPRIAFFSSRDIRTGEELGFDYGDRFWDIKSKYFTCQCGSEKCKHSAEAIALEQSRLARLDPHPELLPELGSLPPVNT
Method: The percentages of G9a activity for the 10 selected molecules were determined at 100 μM S‐adenosylmethionine (SAM) and peptide substrate using AlphaLISA® technology. These percentages were used to calculate the IC50.
G9a inhibitors were serially diluted between 5 nM and 0.001 nM in 100 % DMSO (Sigma, St. Louis, USA). Then, respective concentrations were subsequently diluted in MilliQ purified water to reach a final concentration ranging between 50 and 0.001 μM in 1 % DMSO in well.
Briefly, a sample containing the G9a enzyme is incubated with the biotinylated substrate plus inhibitor solution for two hours. Next, acceptor beads and primary antibody is added, followed by donor beads. Finally, the Alpha‐counts were read using an AlphaScreen microplate reader. The experiment was run per triplicate. G9aactivity(%)=(C-Cb)/(Ct-Cb)x100
Ct=The chemiluminescence reading in the absence of the compound. The data set here is defined as 100 % activity in the absence of the compound.
Cb=The chemiluminescence reading in absence of enzyme. The data set here is defined as 0 % activity in the absence of the enzyme.
C=The chemiluminescence reading in the presence of the compound.
Data analysis was conducted using GraphPad Prism ver. 9 statistical software. The statistical outliers were identified with Grubb's test and excluded from the analysis. Group comparisons were carried out with a One‐way Analysis of variance (ANOVA), followed by the Dunnett post hoc test. In some cases, comparison between groups was also performed by unpaired t‐test or One‐way ANOVA, followed by Fisher's LSD post hoc test. For the calculation of IC50, non‐linear regressions were performed. […] Values are shown as the mean ± Standard error of the mean (SEM) of at least n=3. Statistical significance was considered when p values were <0.05.

[2] = test system: C. elegans strain CL2006; assay: Locomotion assay (motor index); format: in vivo, Caenorhabditis elegans; settings: CL2006 worms, 0.001-1 μM, chronic treatment, compared with UNC0638
Method: One of the best‐characterized transgenic AD strains in C. elegans is the CL2006 strain, which contains the Punc‐54::Aβ1–42 transgene, showing a progressive adult‐onset paralysis. Then, to establish a dose‐response profile, the pharmacological impact of G9a inhibition was evaluated in a locomotion assay with this C. elegans strain. We performed a motility assay where animals were placed in the center of a seeded plate and allowed to explore the environment freely. […] N2 (WT), and CL2006 strain were treated with dimethyl sulfoxide (DMSO) 1 %, used as a vehicle, which should not cause a relevant locomotor defective phenotype. […] The motor index for each condition was calculated using the motor performance of Bristol (N2) (WT, 100 %) and the transgenic AD strain (CL2006, 0 %) animals as reference.
Locomotion assay of G9a inhibitors was assessed to obtain dose‐response profile, evaluating the impact of the pharmacology treatment in motor dysfunction presented by the transgenic strains CL2006. Nematodes were synchronized by alkaline hypochlorite treatment, and drug assay was performed as described above, except for the OP50 bacteria OD595 adjusted to 0.9, and the duration of the treatment was 5 days. N2 (WT), and the transgenic strain CL2006 were treated in liquid media for 4 days at 20 °C and 180 rpm, starting at the L1 stage. On day 5 of age, worms were transferred from the 96‐well plates onto an unseeded NGM plate for 45 minutes before starting the trial, allowing the plates to dry and worms. Locomotion assays were performed in 30 mm NGM plates, in which the whole surface of the plate was covered by OP50. 5 to 10 adult nematodes were placed in the center of a circle (with 1 cm of diameter) in the seeded 30 mm NGM plates. After 1 min, the number of animals remaining inside the circle was scored as a locomotor defect. Motor behavior assays were run in triplicates (n=3), with a total of at least 100 animals tested per compound concentration. Motor index establishes a score where treated animals showing the same motor defect as CL2006 have an index of 0 %. […] All the results shown in the figures are calculated using the following formula: Motorindex(%)=(LDCL2006vehicle-LDCL2006drug)/(LDCL2006vehicle-LDWTvehicle)×100 LD=locomotiondefective

[3] = PAMPA‐BBB assay; format: in vitro ADME; settings: pig; PAMPA‐BBB, PBS:EtOH (70 : 30); read-out: Permeability (Pe) experimental value
Method: To evaluate the brain penetration of the different compounds, a parallel artificial membrane permeation assay for BBB was used, following the method described by Di et al..[33] The in vitro Pe of fourteen commercial drugs through lipid extract of porcine brain membrane together with the test compounds were determined. Commercial drugs and assayed compounds were tested using a mixture of PBS:EtOH (70 : 30).

Row | remaining activity at 0.0001 µM ([1]; first data set of Table S2) | remaining activity at 0.0001 µM ([1]; second data set of Table S2) | remaining activity at 0.0001 µM ([1]; third data set of Table S2) | remaining activity at 0.001 µM ([1]; first data set of Table S2) | remaining activity at 0.001 µM ([1]; second data set of Table S2) | remaining activity at 0.001 µM ([1]; third data set of Table S2) | remaining activity at 0.01 µM ([1]; first data set of Table S2) | remaining activity at 0.01 µM ([1]; second data set of Table S2) | remaining activity at 0.01 µM ([1]; third data set of Table S2) | remaining activity at 0.1 µM ([1]; first data set of Table S2) | remaining activity at 0.1 µM ([1]; second data set of Table S2) | remaining activity at 0.1 µM ([1]; third data set of Table S2) | remaining activity at 1 µM ([1]; first data set of Table S2) | remaining activity at 1 µM ([1]; second data set of Table S2) | remaining activity at 1 µM ([1]; third data set of Table S2) | remaining activity at 10 µM ([1]; first data set of Table S2) | remaining activity at 10 µM ([1]; second data set of Table S2) | remaining activity at 10 µM ([1]; third data set of Table S2) | remaining activity at 50 µM ([1]; first data set of Table S2) | remaining activity at 50 µM ([1]; second data set of Table S2) | Compound | also measured
1 | 31% | 32.1% | 31.6% | 27.8% | 30.6% | 29.2% | 22.9% | 30.7% | 26.8% | 22.8% | 22.7% | 22.7% | 14.8% | 15.1% | 15% | 10% | 11.3% | 10.6% | -0.4% | 0.9% | Cn1ccnc1-c1ccc(NCC(c2cccnc2)N2CCOCC2)nn1 (centres unmarked) [A] | remaining activity at 50 µM ([1]; third data set of Table S2): 0.3%
2 | 32.8% | 32.7% | 32.8% | 22.2% | 23.9% | 23.1% | 15.1% | 19.5% | 17.3% | 12% | 12.6% | 12.3% | 11.5% | 12.4% | 12% | 10.9% | 11.3% | 11.1% | 10.7% | 10.9% | CC(C)c1nccn1CCCNCc1cc(CN2CCCC2)cs1 [C] | motor index dose‐response profile (in words) [2]: ameliorating the paralysis presented by CL2006; remaining activity at 50 µM ([1]; third data set of Table S2): 10.8%; IC50 [1]: 1.7 nM
3 | 29.6% | 33.7% | 31.7% | 26% | 28.7% | 27.4% | 17.6% | 16.1% | 16.8% | 11.4% | 12.3% | 11.9% | 8.7% | 10.3% | 9.5% | 8.5% | 9.1% | 8.8% | 7.7% | 9.1% | CCc1nccn1CCC(=O)Nc1cccc(NC(=O)CN(C)C)c1 [G] | motor index dose‐response profile (in words) [2]: motor index decreased progressively as the dose decreased; remaining activity at 50 µM ([1]; third data set of Table S2): 8.4%; IC50 [1]: 5.8 nM
4 | 30.9% | 29.3% | 30.1% | 24% | 22.5% | 23.2% | 13.5% | 12.8% | 13.2% | 8.2% | 9.3% | 8.7% | 6.8% | 7.3% | 7.1% | 6.6% | 5.7% | 6.2% | 5.9% | 4.8% | CC(C)c1nccn1C(C)C(=O)Nc1ccc(NC(=O)CN2CCCCC2)cc1 (centres unmarked) [I] | motor index dose‐response profile (in words) [2]: lowest motor index in the maximum and minimum dose tested; remaining activity at 50 µM ([1]; third data set of Table S2): 5.3%; IC50 [1]: 3.9 nM

Continued, compound first:

Row | Compound | remaining activity at 0.0001 µM ([1]; first data set of Table S2) | remaining activity at 0.0001 µM ([1]; second data set of Table S2) | remaining activity at 0.0001 µM ([1]; third data set of Table S2) | remaining activity at 0.001 µM ([1]; first data set of Table S2) | remaining activity at 0.001 µM ([1]; second data set of Table S2) | remaining activity at 0.001 µM ([1]; third data set of Table S2) | remaining activity at 0.01 µM ([1]; first data set of Table S2) | remaining activity at 0.01 µM ([1]; second data set of Table S2) | remaining activity at 0.01 µM ([1]; third data set of Table S2) | remaining activity at 0.1 µM ([1]; first data set of Table S2) | remaining activity at 0.1 µM ([1]; second data set of Table S2) | remaining activity at 0.1 µM ([1]; third data set of Table S2) | remaining activity at 1 µM ([1]; first data set of Table S2) | remaining activity at 1 µM ([1]; second data set of Table S2) | remaining activity at 1 µM ([1]; third data set of Table S2) | remaining activity at 10 µM ([1]; first data set of Table S2) | remaining activity at 10 µM ([1]; second data set of Table S2) | remaining activity at 10 µM ([1]; third data set of Table S2) | remaining activity at 50 µM ([1]; first data set of Table S2) | remaining activity at 50 µM ([1]; second data set of Table S2) | also measured
5 | c1ccc(OCCn2ccnc2)c(CN2CCN(c3ccncc3)CC2)c1 [Compound B] | 9.3% | 10.8% | 10% | 8.7% | 11.6% | 10.1% | 3.5% | 7.3% | 5.4% | 2.1% | 5.3% | 3.7% | 1.2% | 3.8% | 2.5% | 0.9% | 1.6% | 1.2% | 0.2% | 0.6% | motor index dose‐response profile (in words) [2]: did not show an improved performance against the motor indexes of the control UNC0638; remaining activity at 50 µM ([1]; third data set of Table S2): 0.4%; IC50 [1]: 9.4 nM
6 | Fc1ccccc1CN1CCC(CN(Cc2ccccn2)CC2CCCO2)CC1 (centres unmarked) [Compound D] | 33% | 33.8% | 33.4% | 29.3% | 28.4% | 28.8% | 23% | 21.5% | 22.2% | 15.8% | 15.9% | 15.9% | 11.5% | 14.2% | 12.8% | 8.3% | 10.3% | 9.3% | 9.9% | 12.1% | remaining activity at 50 µM ([1]; third data set of Table S2): 11%; IC50 [1]: 10.5 nM
7 | CN1C(C(=O)Nc2ccccn2)=C(O)c2ccccc2S1(=O)=O [Piroxicam, reference compound] | – | – | – | – | – | – | – | – | – | – | – | – | – | – | – | – | – | – | – | – | Papp [3]: 2 ± 0.08 ×10⁻⁶ cm/s
8 | CC(=O)[C@H]1CC[C@H]2[C@@H]3CCC4=CC(=O)CC[C@]4(C)[C@H]3CC[C@]12C [Progesterone, reference compound] | – | – | – | – | – | – | – | – | – | – | – | – | – | – | – | – | – | – | – | – | Papp [3]: 14.7 ± 0.3 ×10⁻⁶ cm/s
